Measured values published in patent US20120027741A1 (priority 2009, published 2012).
Read-outs that look alike come from different tables or passages of the source.

Experiments:
Assay type in all cases: in vivo
[1] = test system: Phytophthora infestans; assay: whole plant or invertebrate; settings: Phytophthora infestans, 72 h, tomatoes, 3 days after inoculation; for pest or weed control at 0.4 ppm: 0.4 ppm a.i.; for pest or weed control at 0.125 ppm: 0.125 ppm a.i.; for pest or weed control at 0.5 ppm: 0.5 ppm a.i.
[2] = test system: Sphaerotheca fuliginea; assay: Sphaerotheca test (cucumbers)/protective; settings: Podosphaera fuliginea, 168 h, 7 days after inoculation, read-out: Efficacy in % found
Procedure: Sphaerotheca Test (Cucumbers)/Protective
(§1) Solvent: • 24,5 parts by weight of acetone • 24,5 parts by weight of dimethylacetamide
(§2) Emulsifier: • 1 part by weight of alkylaryl polyglycol ether
(§3) To produce a suitable preparation of active compound, 1 part by weight of active compound is mixed with the stated amounts of solvent and emulsifier, and the concentrate is diluted with water to the desired concentration.
To test for protect activity, young plants are sprayed with the preparation of active compound at the stated rate of application. After the spray coating has dried on, the plants are inoculated with to an aqueous spore suspension of Sphaerotheca fuliginea. The plants are then placed in a greenhouse at approximately 23° C. and a relative atmospheric humidity of approximately 70%.
The test is evaluated 7 days after the inoculation. 0% means an efficacy which corresponds to that of the control, while an efficacy of 100% means that no disease is observed.

[3] = test system: Pythium ultimum; assay: Pythium test (cotton)/seed treatment; settings: Table 11, 0.1 g a.i./dt, emerged seedlings after 7 days
Procedure: Pythium Test (Cotton)/Seed Treatment
The test is performed under greenhouse conditions.
Cotton seeds, treated with the active compound or compound combinations, solved in N-methyl-2-pyrrolidon and diluted with water to the desired dosages, were sown in 6*6 cm pots containing 4 cm of a 1:1 mix of steamed field soil and sand.
Perlite was incubated with mycelium fragments of Pythium ultimum. 1 ml of infected perlite was scattered between the treated cotton seeds. Seeds were then covered by light expanded clay aggregate. Pots were incubated in the greenhouse 7 days at 20° C. and 80% relative humidity.
Assessment consisted of counting of emerged seedlings. 0% means an efficacy which to corresponds to that of the control, while an efficacy of 100% means that all seedlings have emerged.

[4] = test system: Botrytis cinerea; assay: Botrytis test (beans)/protective; settings: 48 h, 2 days after inoculation, read-out: Efficacy in % found
Procedure: Botrytis Test (Beans)/Protective
as §1, §2, §3
To test for protective activity, young plants are sprayed with the preparation of active compound. After the spray coating has dried on, 2 small pieces of agar covered with growth of Botrytis cinerea are placed on each leaf. The inoculated plants are placed in a darkened chamber at 20° C. and a relative atmospheric humidity of 100%.
2 days after the inoculation, the size of the lesions on the leaves is evaluated. 0% means an efficacy which corresponds to that of the control, while an efficacy of 100% means that no disease is observed.

[5] = read-out: Efficacy in % found, Table 3

## C#CCCOC(=O)Nc1cccc(CO/N=C(/c2ccccc2)c2nnnn2C)n1 [Ex. A, but-3-yn-1-yl {6-[({[(Z)-(1-methyl-1H-tetrazol-5-yl)(phenyl)methylene]amino}oxy)methyl]pyridin-2-yl}carbamate]
[1]; read-out: Efficacy in % found, Table 1, 0.1 ppm a.i.
  pest or weed control at 0.1 ppm: 7%
[1]; read-out: Efficacy in % found, Table 1, 0.2 ppm a.i.
  pest or weed control at 0.2 ppm: 23%
[1]; read-out: Efficacy in % found, Table 1
  pest or weed control at 0.4 ppm: 16%
[1]; read-out: Efficacy in % found, Table 2
  pest or weed control at 0.125 ppm: 20%
[1]; [5]
  pest or weed control at 0.125 ppm: 35%
  pest or weed control at 0.5 ppm: 74%
[1]; read-out: Efficacy in % found, Table 4
  pest or weed control at 0.4 ppm: 55%
[1]; read-out: Efficacy in % found, Table 5
  pest or weed control at 0.5 ppm: 70%
[1]; read-out: Efficacy in % found, Table 6
  pest or weed control at 0.125 ppm: 58%
[2]; Table 7, 25 ppm a.i.
  pest or weed control at 25 ppm: 13%
[2]; Table 7, 50 ppm a.i.
  pest or weed control at 50 ppm: 13%
[2]; Table 7, 100 ppm a.i.
  pest or weed control at 100 ppm: 13%
[2]; Table 8, 100 ppm a.i.
  pest or weed control at 100 ppm: 0%
[3]
  Efficacy in % found: 30%
[4]; Table 9, 25 ppm a.i.
  pest or weed control at 25 ppm: 15%
[4]; Table 9, 50 ppm a.i.
  pest or weed control at 50 ppm: 40%
[4]; Table 10, 50 ppm a.i.
  pest or weed control at 50 ppm: 0%
